The text below walks through data of US8912226B2 (priority 2012, dated 2014).

Several values for one entry are separate records, joined by “and”; a condition that tells them apart may be missing. Equal values may be shown once.

For this assay, the system named is rat. The experiment in a line: animal or person. In kind it is in vivo. The following applies: for ED50: ip.

As for `O=C(O)Cc1ccccc1Nc1c(Cl)cccc1Cl` [Diclofenac sodium], the ED50 (Rattus norvegicus, 2 h) came out at 127 mg/kg; the ED50 (rat, in vivo) is 127,036 μg/kg and 127,036 (119,433- μg/kg. For the same compound, the “timepoint of peak effect” value (rat, in vivo) was found to be 120 min p. appl.
Take `COc1ccc2c(c1)c(CC(=O)O)c(C)n2C(=O)c1ccc(Cl)cc1` [Indometacin]: the ED50 reads like this: (Rattus norvegicus, 2 h) 161 mg/kg; (rat, in vivo) 161,327 μg/kg and 161,327 (149,231- μg/kg. Further, the “timepoint of peak effect” value (rat, in vivo) was found to be 120 min p. appl.
